Source: a melting point compilation (Tetko et al.; mined from patent text by program, amines drawn as free bases though some values may be those of a salt)

Structure (SMILES) | melting point [°C]
CC1(C)C2CCC3(C)C(C2)C(=O)CCC13O (stereo not given) | 120 to 123
O=C(CO)Nc1nc(-c2ccc(Br)cc2)cs1 | 222 to 224
NS(=O)(=O)c1cccc2c1C(Cl)=CC2 | 100 to 101
CC(=O)Nc1cc(O)c(C(=O)O)cc1NC(=N)N | 334 to 357
CC1(C)OCCc2nc(-c3ccccc3)sc21 | 65 to 66
COC(COC(C)=O)C1(O)CCC2C3CCC4=CC(=O)CCC4(C)C3CCC21C (stereo not given) | 145 to 147
Cc1c(SCCN2CCNCC2)ccnc1CSc1nc2ccccc2[nH]1 | 166 to 168
CCn1cc(C(=O)O)c(=O)c2cc(F)c(N3CCC(N(C)C)CC3)c(F)c21 | 210 to 211
O=C(CCC12CCC(=O)N1C(=O)CC2)OCc1ccccc1Cl | 126 to 128
CCCCCCc1oc(C=Cc2ccccc2)nc1CC(=O)O | 107 to 108
O=C1c2ccsc2S(=O)(=O)CCN1CCCCN1CCN(c2ncccn2)CC1 | 161 to 163
O=C(O)c1ccccc1-c1nc(-c2cc(C(F)(F)F)cc(C(F)(F)F)c2)no1 | 178 to 182
NCC1=CC(c2ccccc2)Cc2c(O)cccc21 (stereo not given) | 102 to 104
O=C(CCN1CCCCC1)Nc1cccc(NC(=O)Nc2ccc(N(CCCl)CCCl)cc2)c1 | 108 to 110
Cc1cn(C(c2ccccc2)c2ccc(Cl)c([N+](=O)[O-])c2)cn1 (stereo not given) | 105
CC12Cc3cnn(-c4ccc(F)cc4)c3C=C1CCC1OC3(CC=C12)C(=O)NC(=O)NC3=O (stereo not given) | 235 to 236
COCOc1cc(F)ccc1-c1cc(-c2cccc(Br)c2)c(C#N)c(N)n1 | 165 to 166
O=[N+]([O-])c1ccc(NS(=O)(=O)C(F)(F)F)c(OC2CCCCC2)c1 | 93.5 to 95
CC1(C)CN(Cc2ccccc2[N+](=O)[O-])C(=O)S1 | 128 to 129
CCc1c(CC(=O)O)ccc(OC)c1OC | 89 to 90

Structure (SMILES) | melting point [°C]
Cc1cnc(Nc2nc(-c3ccccc3)nc3ccccc23)s1 | 215 to 216
N#Cc1ccc(C2NC(=O)Cc3ccccc32)cc1 (stereo not given) | 165 to 168
Nc1ncnc2[nH]cc(-c3ccccc3)c12 | 238 to 239
CC1(C)[C@@H](CNc2ccc(C(F)(F)F)cn2)CC[C@@]1(C)NCC(=O)N1C[C@@H](F)C[C@H]1C#N | 52 to 58
CCOCc1nc2c(N)nc3cc(-c4ccc(F)nc4)cnc3c2n1CC(C)(C)F | 198 to 199
N#Cc1c(N2CCN(C(=O)c3cccs3)CC2)c2ccccc2n(Cc2ccc(F)cc2)c1=O | 258
Cc1ccc(C)n1CC(=O)N=C(N)N | 198 to 200
COc1cc2nc(N3CCN(c4ccc(Cl)ccc4=O)CC3)nc(N)c2cc1OC | 202 to 204
Cc1nc(N)sc1-c1ccnc(Nc2ccc(N3CCOCC3)cc2)n1 | 300 to 304
CCOC(=O)N1CCc2nc3ccccc3c(Cl)c2CC1 | 104
C#CCc1c(C)nc2c(OCc3ccccc3OC)cccn12 | 134 to 136
CC1=CC(COC(c2ccccc2)(c2ccccc2)c2ccccc2)O[C@H]1c1coc2c(N)ncnc12 (stereo not given in full) | 128 to 132
CCSc1cc(C)nc(SCC)c1NC(=O)CCCSc1nc2ccccc2[nH]1 | 160 to 161
CN1CCN(C2=Nc3cc(Cl)ccc3Cn3nnnc32)CC1 | 228 to 230
CC(C)=CC(O)C(Br)(Br)Br (stereo not given) | 81.5 to 82
Cc1cncc(-c2ccc(OC3SCC(O)C(O)C3O)cn2)c1 (stereo not given) | 165 to 166
Nc1c(N=O)c(=O)n(C2CC2)c(=O)n1C1CC1 | 230
O=C(CC1(O)CCC1)N[C@H]1CC[C@H](CCN2CCN(c3nccc4c3OCC4)CC2)CC1 | 155
C[C@@H]1CNc2c(cccc2[N+](=O)[O-])[C@H](C)N1 (relative stereo) | 62
CC(N)=CC(=O)c1cccs1 | 170 to 172

Structure (SMILES) | melting point [°C]
Cc1cc2c(cc1C)-n1cnnc1C=C(c1ccc(-n3c(C)nc4cnccc43)cc1)N2 | 302 to 304
O=C1COC(=O)c2ccccc2N1 | 200 to 201
COc1nc(NC(=O)NS(=O)(=O)Oc2ccccc2-c2ccon2)nc(OC)n1 | 166 to 168
COc1ccc2[nH]c(SCC3(N4CCCC4)NC=NC(N4CCCC4)=C3C)nc2c1 (stereo not given) | 104 to 106
Cc1ccc(C=Cc2ccccc2)cc1 | 117
CCCCCCC1(CCCCCC)c2cc(Br)ccc2-c2ccc(Br)cc21 | 64 to 66
Cc1ccccc1C(Nc1ccncc1)c1ccccc1 (stereo not given) | 141 to 143
OC(COCc1cccnc1)c1ccc2occc2c1 (stereo not given) | 85 to 86
CN(C)CCNc1ccnc2cc3c(cc12)OCO3 | 193 to 194
COC(=O)C1c2c(C)c(O)c(C)c(C)c2OC1(C)C (stereo not given) | 145 to 146
COc1ccc(C(=CC#N)c2cccc([N+](=O)[O-])c2)cc1OC | 118 to 120
C=CCNc1c(C#N)cnc2cn[nH]c12 | 249 to 252
NCCCCC(OP(=O)(O)CCCCc1ccccc1)C(=O)N1CCCC1C(=O)O (stereo not given) | 160 to 175
NC(=O)c1cnn(C2OC(CO)C(O)C2O)n1 (stereo not given) | 150 to 151
C=CCOC(=O)c1c(-c2ccncc2)[nH]c(-c2ccncc2)c1C | 224
CCOc1ccc(C2=NN(c3ccc(C(=O)N4CCS(=O)(=O)CC4)cc3)C(=O)[C@H]3CC=CC[C@@H]23)cc1OCC (relative stereo) | 186 to 187
N#Cc1c(Nc2c(F)cccc2F)cccc1-c1ccccc1 | 139 to 141
CC(CC(=O)O)n1nnnc1S (stereo not given) | 169 to 172

Continued, values first:

melting point [°C] | Structure (SMILES)
137 to 139 | O=c1c(Cl)c(OCc2ccc(F)cc2F)ccn1Cc1ccc2c(c1)CCN2
206 | CON=C(C)c1ccccc1NC(C(N)=O)c1c(Cl)cccc1Cl (stereo not given)
102 | Cc1ccc(CC2(O)CCN(CCOC(=O)c3ccc(OCc4ccccc4)cc3)CC2)cc1
150 | Cn1cnc(C(c2ccc(Cl)cc2)c2ccc3c(c2)c(-c2ccccc2)cc(=O)n3C)c1 (stereo not given)
130 | CC(=O)N1CCc2cc(C(=O)CN(Cc3ccccc3)Cc3ccccc3)ccc21
225 to 226 | CC(=O)Nc1cccc(-c2nc3n(n2)CCc2ccccc2-3)c1
240 to 241 | O=C1NCCc2c(-c3cccc(Oc4ccc(F)cc4)c3)[nH]c3cccc1c23
173 to 174 | COc1ccc(S(=O)(=O)[C@H](CCCCc2ccccc2)[C@H](C(=O)O)C(C)C)cc1OC (relative stereo)
107 to 109 | Cc1cccc(-c2nc(N)sc2-c2cccc(-c3ccc(S(C)(=O)=O)cc3)c2)n1
264 | Cc1cc(-c2cc(C(F)F)n3ncc(C(=O)Nc4cccc(S(N)(=O)=O)c4)c3n2)ccc1Cl
167 to 170 | O=C(c1ccccc1)N1CCc2cc(S(=O)(=O)n3cc(-c4ccccc4)[nH]c3=O)ccc21
178 to 180 | Cc1ccc(S(=O)(=O)OCC2Cc3cccc(-c4c(Cl)cccc4Cl)c3O2)cc1 (stereo not given)
158 to 160 | CC(C)N1C(=O)[C@@H](CCCC(=O)O)O[C@H](c2ccccc2Cl)c2cc(Cl)ccc21 (relative stereo)
202 to 205 | O=C(O)C1=Cc2ccc(OCc3ccccc3)cc2CC1
158 to 160 | COc1cc(N)ccc1S(=O)(=O)Nc1ccc(C)cc1
85 to 88 | O=C1c2ccccc2C(=O)N1OCCCC#Cc1ccc(F)cc1
240 | O=C(O)c1ccc2cc(OCCOc3ccc4c(CCO)c(C(=O)O)c(CCO)cc4c3)ccc2c1
138 to 141 | CN1CCCC1=NC(=O)Nc1ccc(Cl)cc1
140 | COCCOc1ccc2c(C(c3cccc(NC(=O)OCc4ccccc4)c3C)C(C)[N+](=O)[O-])c[nH]c2c1 (stereo not given)
91 to 92 | Cc1cc(CCCCCOc2ccc(C3=NCCO3)cc2)no1
100 to 102 | CCc1noc(-c2cn(-c3cc(Cl)ccc3OCc3ccccc3)cn2)n1

melting point [°C] | Structure (SMILES)
192 to 194 | Cc1nc(-c2ccc(S(N)(=O)=O)c(F)c2)c(-c2ccc(-c3cscn3)cc2)o1
146 to 148 | CCOc1c(C(=O)NCC(O)CN(CC)CC)n(-c2ccccc2)c2ccccc12 (stereo not given)
87 to 88 | CC(CC(=O)O)c1ccc(-c2ccccc2F)cc1 (stereo not given)
187 to 190 | Cc1ccc(N)c(C(=O)Nc2cccnc2Cl)c1
126 to 128 | NCCCOc1ccc2cc(CC(=O)O)c(=O)n(Cc3ccccc3)c2c1
58 to 59 | CCCCCCCCCCCCCCOc1ccc(CNc2ccccc2)cc1
235 to 237 | Cc1nccn1CCCNC(=O)c1cc2ccccc2[nH]1
160 to 162 | C[C@@]1(F)[C@H](OC(=O)c2ccccc2)[C@@H](COC(=O)c2ccccc2)O[C@H]1n1cnc2c(Cl)nc(N)nc21
158 to 160 | CCOC(=O)c1c(-c2ccc(F)cc2)c2ccncc2c(=O)n1C
103 to 104 | CCCCCCCCCCCCOC(=O)c1ccc2cc(O)ccc2c1
53 to 57 | CCN1C(=O)Cc2cc(OC(=O)CCl)ccc21
242 to 244 | Cc1ccc(NC(=O)c2ccc(C[N+]3([O-])CC[N+](C)([O-])CC3)cc2)cc1Nc1nccc(-c2cccnc2)n1 (stereo not given)
161 to 162 | Cc1oc(-c2ccccc2)nc1COc1ccc(COc2ccc3ccccc3c2CCC(=O)O)cc1
180 to 181 | CCCNC(=O)c1cccc(-c2nc(=O)c3ccccc3s2)n1
163 to 166 | N#Cc1ccc(OCCCCCOc2ccc(-c3cc4cc(C#N)ccc4o3)cc2)cc1
318 | CC(C)(C)c1ccc(-c2cc3ccc(C(=O)O)cc3s2)cc1
180 to 188 | COc1ccc(S(=O)(=O)C(CCCCc2ccccc2)C(=O)NO)cc1OC (stereo not given)
182 to 183 | O=C1NC(=O)C(=Cc2ccc(OCc3cccc(Cl)c3)cc2)S1
175 to 176 | CCCCOc1ccc(S(=O)(=O)NC(=NO)Nc2ccc(Cl)cc2)cc1
131 to 132 | CCCCCCCCOc1ccc(-c2ncc(O)cn2)cc1
93 to 94 | CS(=O)(=O)OCCCc1ccccc1OCc1coc(/C=C/c2ccccc2)n1
